How the values were obtained:
[1] = target: recombinant human mPGES-1 (Homo sapiens (Human), UniProt O14684); experiment: mPGES-1 enzyme assay (HTRF detection of PGE2); format: biochemical; settings: recombinant human mPGES-1 microsomes, PGH2 2 μM, 60 seconds; read-out: mPGES-1 inhibitory effect IC50 in the enzyme assay
Method in brief: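 Microsomes from E. coli expressing recombinant human mPGES-1 (~0.5 μg protein/well) in 0.1 M phosphate pH 7.4 with 2.5 mM GSH, pre-incubated with compound 25 min at room temperature. PGH2 (2 μM final) added, reaction stopped with FeCl2 after 60 s; PGE2 quantified by HTRF (665/620 ratio) against a calibration curve, IC50 by nonlinear regression after background subtraction.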

[2] = target: mPGES-1 in A549 cells (Homo sapiens (Human), UniProt O14684); experiment: A549 cell-based assay (PGE2 formation, 50% human serum); settings: IL-1β 5 ng/ml, 10 nM arachidonic acid, 20-24 h, read-out: mPGES-1 inhibitory effect IC50 in the cell assay
Chain of mPGES-1 in A549 cells (O14684 whole entry): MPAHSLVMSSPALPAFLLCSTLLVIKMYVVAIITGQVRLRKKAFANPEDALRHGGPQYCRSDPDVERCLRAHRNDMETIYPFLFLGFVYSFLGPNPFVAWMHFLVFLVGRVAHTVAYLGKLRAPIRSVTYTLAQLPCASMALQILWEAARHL
Method in brief: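 A549 cells in F-12K with 50% human serum were stimulated 20-24 h with 5 ng/ml IL-1β and 10 nM arachidonic acid in presence of compound or vehicle. PGE2 in the cell-free medium was measured by HTRF, normalised to vehicle (100%). IC50 from 6-8 point titrations.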

Chain of recombinant human mPGES-1 (O14684 whole entry): as above

| IC50 [1] | IC50 [2] | Compound |
| --- | --- | --- |
| 3 nM | 1 nM | Cn1c(Nc2c(Cl)ccc(CNC(=O)C(C)(C)F)c2Cl)nc2cc(C(=O)N[C@H]3CC[C@H](C(F)(F)F)CC3)c(N3CC[C@@H](F)C3)cc21 [Example 120] |
| 3 nM | 2 nM | Cn1c(Nc2c(Cl)ccc(CNC(=O)C(C)(C)C)c2Cl)nc2cc(C(=O)N[C@H]3CC[C@H](C(F)(F)F)CC3)c(N3CCC4(CC4)C3)cc21 [Example 121] |
| 3 nM | 1 nM | Cn1c(Nc2c(Cl)ccc(CNC(=O)C(C)(C)C)c2Cl)nc2cc(C(=O)N[C@H]3CC[C@H](C(F)(F)F)CC3)c(N3CC4CCC4C3)cc21 (some centres unmarked) [Example 122] |
| 2 nM | 1 nM | Cn1c(Nc2c(Cl)ccc(CNC(=O)C(C)(C)C(F)(F)F)c2Cl)nc2cc(C(=O)N[C@H]3CC[C@H](C(F)(F)F)CC3)c(N3CC[C@@H](F)C3)cc21 [Example 128] |
| 3 nM | 5 nM | Cn1c(Nc2c(Cl)ccc(CNC(=O)C(C)(C)C)c2Cl)nc2cc(C(=O)N[C@H]3CC[C@H](C(F)(F)F)CC3)c(N3C[C@@H]4C[C@H]3CO4)cc21 [Example 129] |
| 2 nM | 7 nM | Cn1c(Nc2c(Cl)ccc(CNC(=O)C(C)(C)C)c2Cl)nc2cc(C(=O)N[C@H]3CC[C@H](C(F)(F)F)CC3)c(N3CCS(=O)(=O)CC3)cc21 [Example 130] |
| 2 nM | 1 nM | Cn1c(Nc2c(Cl)ccc(CNC(=O)C(C)(C)C)c2Cl)nc2cc(C(=O)N[C@H]3CC[C@H](C(F)(F)F)CC3)c(N3CCNC(C(F)(F)F)C3)cc21 (some centres unmarked) [Example 131] |
| 5 nM | 1.5 nM | Cn1c(Nc2c(Cl)ccc(CNC(=O)C(C)(C)C)c2Cl)nc2cc(C(=O)N[C@H]3CC[C@H](C(F)(F)F)CC3)c(N3CCN(CC(F)(F)F)CC3)cc21 [Example 132] |
| 3 nM | 10 nM | Cn1c(Nc2c(Cl)ccc(CNC(=O)C(C)(C)C)c2Cl)nc2cc(C(=O)N[C@H]3CC[C@H](C(F)(F)F)CC3)c(N3CCn4ncnc4C3)cc21 [Example 133] |
| 2 nM | < 1 nM | Cn1c(Nc2c(Cl)ccc(CNC(=O)C(C)(C)C)c2Cl)nc2cc(C(=O)N[C@H]3CC[C@H](C(F)(F)F)CC3)c(N3CC4CCC(C3)O4)cc21 [Example 134] |
| 3 nM | 5 nM | Cn1c(Nc2c(Cl)ccc(CNC(=O)C(C)(C)C)c2Cl)nc2cc(C(=O)NCCC(F)(F)F)c(N3CC4CC4C3)cc21 (centres unmarked) [Example 135] |
| 3 nM | 1 nM | Cn1c(Nc2c(Cl)ccc(CNC(=O)C(C)(C)C)c2Cl)nc2cc(C(=O)Nc3ccc(OC(F)(F)F)cc3)c(N3CCCC(C(F)(F)F)C3)cc21 (centres unmarked) [Example 136] |
| 3 nM | < 1 nM | CN(CC(F)F)c1cc2c(cc1C(=O)Nc1ccc(OC(F)(F)F)cc1)nc(Nc1c(Cl)ccc(CNC(=O)C(C)(C)C)c1Cl)n2C [Example 137] |
| 2 nM | 3 nM | Cn1c(Nc2c(Cl)ccc(CNC(=O)C(C)(C)C)c2F)nc2cc(C(=O)Nc3ccc(OC(F)(F)F)cc3)c(N3CC[C@@H](F)C3)cc21 [Example 138] |
| 3 nM | < 1 nM | Cn1c(Nc2c(Cl)ccc(CNC(=O)C(C)(C)C)c2Cl)nc2cc(C(=O)Nc3ccc(OC(F)(F)F)cc3)c(N3CC[C@H](F)C3)cc21 [Example 139] |
| 2 nM | 5 nM | Cn1c(Nc2c(Cl)ccc(CNC(=O)C(C)(C)F)c2Cl)nc2cc(C(=O)Nc3ccc(OC(F)(F)F)cc3)c(N3CCC(F)(F)CC3)cc21 [Example 140] |
| 2 nM | 1 nM | Cn1c(Nc2c(Cl)ccc(CNC(=O)C(C)(C)C)c2Cl)nc2cc(C(=O)Nc3ccc(OC(F)(F)F)cc3)c(N3CCOCC3)cc21 [Example 141] |
| 5 nM | 1 nM | Cc1c(N2CC3CC3C2)c(C(=O)N[C@H]2CC[C@H](C(F)(F)F)CC2)cc2nc(Nc3c(Cl)ccc(CNC(=O)C(C)(C)C)c3Cl)n(C)c12 (stereo partly drawn) [Example 144, N-(trans-4-Trifluoromethyl-cyclohexyl)-2-{2,6-dichloro-3-[(2,2-dimethyl-propionylamino)-methyl]-phenylamino}-6-[3-aza-bicyclo[3.1.0]hex-3-yl]-1,7-dimethyl-1H-benzimidazole-5-carboxylic acid amide] |
| 3 nM | 2.5 nM | Cn1c(Nc2c(Cl)ccc(CNC(=O)C(C)(C)C)c2Cl)nc2cc(C(=O)N[C@H]3CC[C@H](C(F)(F)F)CC3)c(N3CC[C@@H](F)C3)c(F)c21 [Example 145, (R)—N-(trans-4-Trifluoromethyl-cyclohexyl)-2-{2,6-dichloro-3-[(2,2-dimethyl-propionylamino)-methyl]-phenylamino}-6-[3-fluoro-pyrrolidinyl]-1-methyl-7-fluoro-1H-benzimidazole-5-carboxylic acid amide] |
| 3 nM | 20 nM | Cn1c(Nc2c(Cl)ccc(CNC(=O)C(C)(C)F)c2Cl)nc2cc(C(=O)NCCC(F)(F)F)c(N3CCC(O)CC3)cc21 [Example 148] |

| IC50 [1] | IC50 [2] | Compound |
| --- | --- | --- |
| 3 nM | 3 nM | CN(c1cc2c(cc1C(=O)NCCC(F)(F)F)nc(Nc1c(Cl)ccc(CNC(=O)C(C)(C)F)c1Cl)n2C)C1CCC1 [Example 149] |
| 2 nM | 2 nM | Cn1c(Nc2c(Cl)ccc(CNC(=O)C(C)(C)F)c2Cl)nc2cc(C(=O)NCCC(F)(F)F)c(N3CCCC(C(F)(F)F)C3)cc21 (centres unmarked) [Example 150] |
| 2 nM | < 1 nM | Cn1c(Nc2c(Cl)ccc(CNC(=O)C(C)(C)F)c2Cl)nc2cc(C(=O)Nc3ccc(F)c(Cl)c3)c(N3CCC(F)(F)C3)cc21 [Example 154] |
| 2 nM | 2 nM | Cn1c(Nc2c(Cl)ccc(CNC(=O)C3(C)CC3)c2Cl)nc2cc(C(=O)Nc3ccc(OC(F)(F)F)cc3)c(N3CC[C@@H](F)C3)cc21 [Example 156] |
| 4 nM | 4 nM | Cc1nc(C(F)(F)F)c(CNC(=O)c2cc3nc(Nc4c(Cl)ccc(CNC(=O)C(C)(C)C)c4Cl)n(C)c3cc2N2CCC(C(F)(F)F)CC2)s1 [Example 158] |
| 3 nM | 4 nM | Cn1c(Nc2c(Cl)ccc(CNC(=O)C(C)(C)C)c2Cl)nc2cc(C(=O)Nc3cc(C(C)(C)C)on3)c(N3CCC(C(F)(F)F)CC3)cc21 [Example 159] |
| 4 nM | 3 nM | Cn1c(Nc2c(Cl)ccc(CNC(=O)C(C)(C)C)c2Cl)nc2cc(C(=O)Nc3cc(C(C)(C)CO)no3)c(N3CCC(C(F)(F)F)CC3)cc21 [Example 160] |
| 3 nM | 3 nM | Cn1c(Nc2c(Cl)ccc(CNC(=O)C(C)(C)C)c2Cl)nc2cc(C(=O)Nc3nc(C(F)(F)F)cs3)c(N3CCC(C(F)(F)F)CC3)cc21 [Example 161] |
| 3 nM | 2 nM | Cn1c(Nc2c(Cl)ccc(CNC(=O)C(C)(C)C)c2Cl)nc2cc(C(=O)Nc3nnc(C(C)(C)C)s3)c(N3CCC(C(F)(F)F)CC3)cc21 [Example 162] |
| 4 nM | 7 nM | CC(C)(C)C(=O)NCc1ccc(Cl)c(Nc2nc3cc(C(=O)N[C@H]4CC[C@H](C(F)(F)F)CC4)c(N4CC5CC5C4)cc3n2C2(C(C)(C)O)CC2)c1Cl (some centres unmarked) [Example 164] |
| 2 nM | 3 nM | CC(C)(O)Cn1c(Nc2c(Cl)ccc(CNC(=O)C(C)(C)C)c2Cl)nc2cc(C(=O)N[C@H]3CC[C@H](C(F)(F)F)CC3)c(N3CCC(C(F)(F)F)CC3)cc21 [Example 165] |
| 2 nM | 12 nM | CC(C)(O)Cn1c(Nc2c(Cl)ccc(CNC(=O)C(C)(C)C)c2Cl)nc2cc(C(=O)Nc3ccc(OC(F)(F)F)cc3)c(N3CCOCC3)cc21 [Example 166, N-(4-Trifluoromethoxy-phenyl)-2-{2,6-dichloro-3-[(2,2-dimethyl-propionylamino)-methyl]-phenylamino}-6-[morpholinyl]-1-(2-hydroxy-2-methyl-propyl)-1H-benzimidazole-5-carboxylic acid amide] |
| 2 nM | 2 nM | Cn1c(Nc2c(Cl)ccc(CNC(=O)c3ccc(O)cc3F)c2Cl)nc2cc(C(=O)NCCC(F)(F)F)c(N3CCC(C(F)(F)F)CC3)cc21 [Example 173] |
| 4 nM | 7 nM | Cn1c(Nc2c(Cl)ccc(CNC(=O)C(C)(C)CO)c2Cl)nc2cc(C(=O)NCCC(F)(F)F)c(N3CCC(C(F)(F)F)CC3)cc21 [Example 175] |
| 4 nM | 34 nM | Cn1c(Nc2c(Cl)ccc(CNC(=O)c3c(N)cccc3Cl)c2Cl)nc2cc(C(=O)NCCC(F)(F)F)c(N3CCC(C(F)(F)F)CC3)cc21 [Example 176] |
| 2 nM | 3 nM | Cn1c(Nc2c(Cl)ccc(CNC(=O)c3ccc(N)cc3Cl)c2Cl)nc2cc(C(=O)NCCC(F)(F)F)c(N3CCC(C(F)(F)F)CC3)cc21 [Example 177] |
| 5 nM | 28 nM | Cn1c(Nc2c(Cl)ccc(CNC(=O)c3cccc(O)c3)c2Cl)nc2cc(C(=O)NCCC(F)(F)F)c(N3CCC(C(F)(F)F)CC3)cc21 [Example 178] |
| 2 nM | > 100 nM | Cn1c(Nc2c(Cl)ccc(CNC(=O)c3c(O)cccc3F)c2Cl)nc2cc(C(=O)NCCC(F)(F)F)c(N3CCC(C(F)(F)F)CC3)cc21 [Example 179] |
| 2 nM | 7 nM | Cn1c(Nc2c(Cl)ccc(CNC(=O)c3nccs3)c2Cl)nc2cc(C(=O)NCCC(F)(F)F)c(N3CCC(C(F)(F)F)CC3)cc21 [Example 182] |

| Compound | IC50 [1] | IC50 [2] |
| --- | --- | --- |
| Cn1c(Nc2c(Cl)ccc(CNC(=O)C(C)(C)C)c2Cl)nc2cc(C(=O)N[C@H]3CC[C@H](C(F)(F)F)CC3)c(N3C[C@H]4C[C@@H](C3)[C@H]4O)cc21 [Example 126] | 2 nM | 1 nM |
